Experimental data as given in patent US11590117B2, “Treatment of a hematologic malignancy with 2-(4-chlorophenyl)-n-((2-(2,6-dioxopiperidin-3-yl)-1-oxoisoindolin-5-yl)methyl)-2,2-difluoroacetamide” (priority 2016, dated 2023).

Assays:
[1] = Dynamic vapor sorption (DVS) analysis; assay type: physicochemical; conditions: relative humidity increased from about 0% to about 90% RH
Method: In certain embodiments, Form A is characterized by dynamic vapor sorption analysis. […] In certain embodiments, Form A comprises less than 0.1% water as determined in a coulometric Karl Fischer (KF) titrator equipped with an oven sample processor set at 225° C.
In certain embodiments, Form B is characterized by dynamic vapor sorption analysis. […] In certain embodiments, Form B comprises less than 0.1% water as determined in a coulometric Karl Fischer (KF) titrator equipped with an oven sample processor set at 225° C.
In certain embodiments, Form C is characterized by dynamic vapor sorption analysis. […] In certain embodiments, Form C comprises less than 0.1% water as determined in a coulometric Karl Fischer (KF) titrator equipped with an oven sample processor set at 225° C.

[2] = assay type: physicochemical
Source text: In certain embodiments, the compound for use in the methods is an anhydrous Form C of 2-(4-chlorophenyl)-N-((2-(2,6-dioxopiperidin-3-yl)-1-oxoisoindolin-5-yl)methyl)-2,2-difluoroacetamide.
In certain embodiments, Form C is obtained by slurrying 2-(4-chlorophenyl)-N-((2-(2,6-dioxopiperidin-3-yl)-1-oxoisoindolin-5-yl)methyl)-2,2-difluoroacetamide in certain solvent systems, for example, solvent systems comprising one or more of the following solvents: acetonitril/water, acetone, or ethanol/water for extended period of time.

HL-60 human AML cells = experiment: HL-60 IV AML xenograft model, survival study; assay type: in vivo, SCID mice; conditions: positive control; p<0.05 vs vehicle
Method: In this study, Compound 1 antitumor activity in the HL-60 IV AML xenograft model was studies. In this model, HL-60 human AML cells engraft in host BM and internal organs (eg, spleen, liver) and animals develop progressive peripheral leukocytosis. Female severe combined immunodeficiency (SCID) mice were inoculated with HL-60 cells by tail vein injection. To understand the effect of Compound 1 on the xenografted HL-60 cells, animals were dosed intraperitoneal (IP) with vehicle or Compound 1 (0.5, 1, 2.5, and 5 mg/kg) once daily (QD)×5 between Weeks 3 and 4 post-engraftment (AP6516, survival study) or animals were dosed IP twice daily (BID) with vehicle or Compound 1 for 5 or 10 consecutive days (5 mg/kg BID×5 or 2.5 mg/kg, BID×10) between Weeks 6 and 8 post-engraftment (Study AP6982, % human CD33+[hCD33+] cells in BM).
Tumor burden from the peripheral blood of HL-60-bearing animals was assessed by fluorescence-activated cell sorting (FACS) at Week 7 post-tumor cell inoculation. […] Mice from the vehicle control and Compound 1 treatment groups succumbed to disease burden starting on Day 54 for the vehicle control group and between Day 51 and Day 57 for the Compound 1 treatment groups. […] One mouse (1/8) from the 2.5 mg/kg Compound 1-treated group survived to study termination on Day 162.

Structure (SMILES) | water uptake (DVS) [1] | thermodynamic stability among the crystal forms [2] | median survival (HL-60 human AML cells)
O=C1CCC(N2Cc3cc(CNC(=O)C(F)(F)c4ccc(Cl)cc4)ccc3C2=O)C(=O)N1 (centres unmarked) [Form A, 2-(4-chlorophenyl)-N-((2-(2,6-dioxopiperidin-3-yl)-1-oxoisoindolin-5-yl)methyl)-2,2-difluoroacetamide] | about 1.2 % w/w | – | –
O=C1CCC(N2Cc3cc(CNC(=O)C(F)(F)c4ccc(Cl)cc4)ccc3C2=O)C(=O)N1 (centres unmarked) [Form B, 2-(4-chlorophenyl)-N-((2-(2,6-dioxopiperidin-3-yl)-1-oxoisoindolin-5-yl)methyl)-2,2-difluoroacetamide] | about 1.4 % w/w | – | –
O=C1CCC(N2Cc3cc(CNC(=O)C(F)(F)c4ccc(Cl)cc4)ccc3C2=O)C(=O)N1 (centres unmarked) [Form C, 2-(4-chlorophenyl)-N-((2-(2,6-dioxopiperidin-3-yl)-1-oxoisoindolin-5-yl)methyl)-2,2-difluoroacetamide] | about 0.6 % w/w | most thermodynamically stable anhydrate | –
Nc1nc(F)nc2c1ncn2[C@@H]1O[C@H](CO)[C@@H](O)[C@@H]1O [fludarabine, reference compound] | – | – | 76 days
